≈ marks a conversion by molar mass, not a printed value.
Assays:
[1] = system: Aspergillus niger ATCC 16404; assay: MIC determination (broth micro-dilution); assay type: cell-based; conditions: ATCC16404
Method: (§1) Before analysis, compounds 5a–f were dissolved in 96% ethanol in a concentration of 2 mg/ml as stock solutions. Inoculums were prepared with fresh cultures of microbial strains, cultured on tryptic-soy agar or Sabouraud 2% (m/v) dextrose agar for 18 h (48–72 h for fungi) at 30 °C with physiological saline containing approximately […]. Inoculum density (0.5 McFarland units) was adjusted with a bio Mériex (France) densitometer. Minimum inhibitory concentration (MIC) was determined by the twofold micro-dilution method in Mu¨ller–Hinton broth for bacterial strains and RPMI 1640 + 2% m/v dextrose for fungi according to the EUCAST recommendations in a sterile 96-well flat-bottom plastic tissue culture plate. MIC was determined using a linear regression curve after incubation of compounds and reading the optical density at 570 nm using an iEMS microplate reader. […] All tests were performed in triplicate and expressed as the mean.

[2] = system: Candida albicans ATCC 10231; assay: MIC determination (broth micro-dilution); assay type: cell-based; conditions: ATCC10231
Method: as §1

[3] = system: Candida albicans ATCC 90028; assay: MIC determination (broth micro-dilution); assay type: cell-based; conditions: ATCC90028
Method: as §1

Candida kefyr ATCC 2512 [4] = assay: MIC determination (broth micro-dilution); assay type: cell-based; conditions: Kluyveromyces marxianus, ATCC2512
Method: as §1

[5] = system: Candida krusei ATCC 14243; assay: MIC determination (broth micro-dilution); assay type: cell-based; conditions: Pichia kudriavzevii, ATCC14243
Method: as §1

[6] = system: Candida tropicalis ATCC 750; assay: MIC determination (broth micro-dilution); assay type: cell-based; conditions: ATCC750
Method: as §1

[7] = system: Issatchenkia orientalis Kudrjanzev ATCC 6258; assay: MIC determination (broth micro-dilution); assay type: cell-based; conditions: Pichia kudriavzevii, ATCC6258
Method: as §1

[8] = system: Candida albicans ATCC 10231; assay: Minimum biofilm eradication assay; assay type: cell-based; conditions: ATCC10231, 48 h, read-out: MBEC
Method: (§2) We tested the susceptibility of different bacterial and yeast strains to compounds 5a–f by determining the minimum biofilm eradication concentration (MBEC). The test was performed in a sterile 96-well flat-bottom plastic tissue culture plate (TPP, Switzerland). Each well was filled with 100 µl of bacterial (10^7 CFUs/ml) or yeast (5 × 10^6 CFUs/ml) suspension. When the possibility of inhibition of yeast biofilm formation was tested, the wells were pre-treated with FBS (250 µl per well). Negative controls contained broth only. Positive controls were performed using standard antibacterial and antifungal drugs gentamycin and amphotericin B, respectively. The plates were covered and incubated aerobically for 24 h (bacteria) or 48 h (yeast) at 37 °C. Following the incubation period, each well was aspirated and washed three times with 250 µl of PBS and vigorously shaken in order to remove all non-adherent bacteria/yeast. The remaining attached cells were fixed with methanol (15 min) and the plates were left to dry overnight. The formed biofilm was stained with crystal violet (1%, 5 min). Excess stain was rinsed by placing the plate under running tap water and the plates were left to dry for 24 h. Adherent cells were resolubilized with acetic acid (33%, v/v). The optical density of each well was measured at 570 nm using a Multiscan plate reader. The MBEC value represents the lowest compound dilution at which microorganisms fail to grow.

[9] = system: Candida albicans ATCC 90028; assay: Minimum biofilm eradication assay; assay type: cell-based; conditions: ATCC90028, 48 h, read-out: MBEC
Method: as §2

Candida kefyr ATCC 2512 [10] = assay: Minimum biofilm eradication assay; assay type: cell-based; conditions: Kluyveromyces marxianus, ATCC2512, 48 h, read-out: MBEC
Method: as §2

[11] = system: Candida krusei ATCC 14243; assay: Minimum biofilm eradication assay; assay type: cell-based; conditions: Pichia kudriavzevii, ATCC14243, 48 h, read-out: MBEC
Method: as §2

[12] = system: Candida tropicalis ATCC 750; assay: Minimum biofilm eradication assay; assay type: cell-based; conditions: ATCC750, 48 h, read-out: MBEC
Method: as §2

[13] = Interaction with 1,1-diphenyl-2-picrylhydrazyl (DPPH); conditions: 100 μΜ
Method: To a solution of DPPH in absolute ethanol, an appropriate volume of the tested compound solution (0.1 mM final concentration) dissolved in DMSO was added. Absorbance was recorded at 517 nm after 20 and 60 min at room temperature (Lambda 20 double beam spectrophotometer, Perkin-Elmer, UK). Experiments were repeated at least in triplicate and the standard deviation of absorbance was less than 10% of the mean[10]. NDGA was used under the same experimental conditions as a reference compound.

[14] = system: Bacillus cereus ATCC 11778; assay: MIC determination (broth micro-dilution); assay type: cell-based; conditions: ATCC11778
Method: as §1

[15] = system: Bacillus subtilis ATCC 6633; assay: MIC determination (broth micro-dilution); assay type: cell-based; conditions: ATCC6633
Method: as §1

[16] = system: Burkholderia caepacia ATCC 25416; assay: MIC determination (broth micro-dilution); assay type: cell-based; conditions: ATCC25416
Method: as §1

[17] = system: Candida parapsylosis ATCC 22019; assay: MIC determination (broth micro-dilution); assay type: cell-based; conditions: ATCC22019
Method: as §1

[18] = system: Enterococcus faecalis ATCC 29212; assay: MIC determination (broth micro-dilution); assay type: cell-based; conditions: ATCC29212
Method: as §1

[19] = system: Enterococcus hyrae ATCC 8043; assay: MIC determination (broth micro-dilution); assay type: cell-based; conditions: ATCC8043
Method: as §1

[20] = system: Escherichia coli ATCC 10536; assay: MIC determination (broth micro-dilution); assay type: cell-based; conditions: ATCC10536
Method: as §1

[21] = system: Escherichia coli ATCC 8739; assay: MIC determination (broth micro-dilution); assay type: cell-based; conditions: ATCC8739
Method: as §1

[22] = system: Kocuria rhizophila ATCC 9341; assay: MIC determination (broth micro-dilution); assay type: cell-based; conditions: ATCC9341
Method: as §1

[23] = system: Pseudomonas aeruginosa ATCC 27853; assay: MIC determination (broth micro-dilution); assay type: cell-based; conditions: ATCC27853
Method: as §1

[24] = system: Pseudomonas aeruginosa ATCC 9027; assay: MIC determination (broth micro-dilution); assay type: cell-based; conditions: ATCC9027
Method: as §1

[25] = system: Staphylococcus aureus ATCC 25213; assay: MIC determination (broth micro-dilution); assay type: cell-based; conditions: ATCC25213
Method: as §1

[26] = system: Staphylococcus aureus ATCC 25923; assay: MIC determination (broth micro-dilution); assay type: cell-based; conditions: ATCC25923
Method: as §1

[27] = system: Staphylococcus aureus ATCC 6538; assay: MIC determination (broth micro-dilution); assay type: cell-based; conditions: ATCC6538
Method: as §1

[28] = Inhibition of linoleic acid peroxidation (LP), AAPH-initiated; design: tested at 100 µM; conditions: 100 μΜ, 37 °C
Method: To initiate lipid peroxidation, the free radical AAPH was used[10]. The final solution in the UV cuvette consisted of 10 µl sodium linoleate solution (c = 16 mM) and 0.93 ml phosphate buffer pH 7.4 (c = 50 mM). Afterwards, 10 µl of the tested compound solution in DMSO (final concentration 0.1 mM) and 50 µl of AAPH solution (c = 40 mM) were added. The experiment was performed at 37 °C under air. Oxidation of linoleic acid sodium salt was monitored at 234 nm. The assay was repeated at least in triplicate and the standard deviation of absorbance was less than 10% of the mean. Trolox was used under the same experimental conditions as a reference compound.

[29] = system: Candida parapsylosis ATCC 22019; assay: Minimum biofilm eradication assay; assay type: cell-based
Method: as §2

[30] = system: Enterococcus faecalis ATCC 29212; assay: Minimum biofilm eradication assay; assay type: cell-based
Method: as §2

[31] = system: Escherichia coli ATCC 10536; assay: Minimum biofilm eradication assay; assay type: cell-based
Method: as §2

[32] = system: Escherichia coli ATCC 8739; assay: Minimum biofilm eradication assay; assay type: cell-based
Method: as §2

[33] = system: Pseudomonas aeruginosa ATCC 27853; assay: Minimum biofilm eradication assay; assay type: cell-based
Method: as §2

[34] = system: Pseudomonas aeruginosa ATCC 9027; assay: Minimum biofilm eradication assay; assay type: cell-based
Method: as §2

[35] = system: Staphylococcus aureus ATCC 25213; assay: Minimum biofilm eradication assay; assay type: cell-based
Method: as §2

[36] = system: Staphylococcus aureus ATCC 6538; assay: Minimum biofilm eradication assay; assay type: cell-based
Method: as §2

E. coli (both strains) = assay: Minimum biofilm eradication assay, E. coli both strains; assay type: cell-based, Escherichia coli
Method: as §2, with “The MBEC value represents the lowest compound dilution at which microorganisms fail to grow.” left out

C[C@@H]1[C@H](O)[C@@H](C)/C=C/C=C/C=C/C=C/C=C/C=C/C=C/[C@H](O[C@@H]2O[C@H](C)[C@@H](O)[C@H](N)[C@@H]2O)C[C@@H]2O[C@](O)(C[C@@H](O)C[C@@H](O)[C@H](O)CC[C@@H](O)C[C@@H](O)CC(=O)O[C@H]1C)C[C@H](O)[C@H]2C(=O)O [Amph, amphotericin B, reference compound]
MIC [1]: 0.5 µg/mL (≈ 0.541 µM)
MIC [2]: 0.5 µg/mL (≈ 0.541 µM)
MIC [3]: 0.5 µg/mL (≈ 0.541 µM)
MIC (Candida kefyr ATCC 2512 [4]): 0.5 µg/mL (≈ 0.541 µM)
MIC [5]: 0.5 µg/mL (≈ 0.541 µM)
MIC [6]: 0.5 µg/mL (≈ 0.541 µM)
MIC [7]: 0.5 µg/mL (≈ 0.541 µM)
minimal effective concentration [8]: 25 µg/mL
minimal effective concentration [9]: 25 µg/mL
minimal effective concentration (Candida kefyr ATCC 2512 [10]): 25 µg/mL
minimal effective concentration [11]: 50 µg/mL
minimal effective concentration [12]: 50 µg/mL

CC(Cc1ccc(O)c(O)c1)C(C)Cc1ccc(O)c(O)c1 (centres unmarked) [NDGA, nordihydroguaiaretic acid, reference compound]
DPPH-reducing ability 20 min ([13]; 20 min): 83.0 ± 1.0%
DPPH-reducing ability 60 min ([13]; 60 min): 91.0 ± 1.7%

CN(C)[C@@H]1C(O)=C(C(N)=O)C(=O)[C@@]2(O)C(O)=C3C(=O)c4c(O)cccc4[C@@](C)(O)[C@H]3C[C@@H]12 [TC, tetracycline, reference compound]
MIC [14]: 0.31 µg/mL (≈ 0.698 µM)
MIC [15]: 0.31 µg/mL (≈ 0.698 µM)
MIC [16]: 3 µg/mL (≈ 6.75 µM)
MIC [17]: 6.13 µg/mL (≈ 13.8 µM)
MIC [18]: 0.31 µg/mL (≈ 0.698 µM)
MIC [19]: 0.63 µg/mL (≈ 1.42 µM)
MIC [20]: 2.5 µg/mL (≈ 5.63 µM)
MIC [21]: 2.5 µg/mL (≈ 5.63 µM)
MIC [22]: 0.63 µg/mL (≈ 1.42 µM)
MIC [23]: 3 µg/mL (≈ 6.75 µM)
MIC [24]: 3 µg/mL (≈ 6.75 µM)
MIC [25]: 0.16 µg/mL (≈ 0.36 µM)
MIC [26]: 0.31 µg/mL (≈ 0.698 µM)
MIC [27]: 0.31 µg/mL (≈ 0.698 µM)

Cc1c(C)c2c(c(C)c1O)CCC(C)(C(=O)O)O2 (centres unmarked) [Trolox, 6-hydroxy-2,5,7,8-tetramethylchroman-2-carboxylic acid, reference compound]
LP inhibition (%) ± SD [28]: 96 ± 2.0%

gentamycin [reference compound]
MBEC [29]: 50 µg/mL
MBEC [30]: 50 µg/mL
MBEC [31]: 25 µg/mL
MBEC [32]: 25 µg/mL
MBEC [33]: 50 µg/mL
MBEC [34]: 50 µg/mL
MBEC [35]: 12.5 µg/mL
MBEC [36]: 12.5 µg/mL
MBEC (E. coli (both strains)): 25 µg/mL
